Laboratory results: patent US7572783B2 (Amgen Inc., priority 2004, dated 2009)

Target: T1, human GHSR1a (Homo sapiens, UniProt Q92847)
T1 construct: expressed in transfected cells
Assay: Aequorin luminescent functional assay (intracellular Ca2+, ghrelin-stimulated)
Conditions: stable cell line expressing human GHSR1a and apoaequorin; final ghrelin 3x EC50 (20 nM); read-out: Class (based on IC50 values)
Method: IC50 values of inventive compounds may be assessed as follows. An aequorin (Euroscreen) luminescent assay (Stabels et al., 1997) measuring the intracellular Ca^2+ concentration was used as the functional assay to evaluate the potency of the compounds. A stable cell line, expressing human GHSR1a and apoaequorin in mitochondria was used in the aequorin assay. 5×10^6 cells per mL were incubated at room temperature in HyClone Media (Perbio) supplemented with 2 μM coelenterazine (Molecular Probes). After 2 hrs cells were diluted to 1×10^6 cells per ml in HyClone Medium.
50 μL of the cell suspension was added to each well of a 96-well plate containing 50 μL of compound, diluted in HyClone Medium. The cell suspension/compound mixture was incubated for 30 seconds before 50 μL of a 9× EC50 concentrations of a human ghrelin solution, in HyClone Medium, was injected. The final Ghrelin concentration was 3× EC50 (20 nM). Aequorin luminescence elicited by intracellular Ca^2+ in the cells was recorded for a total of 60 seconds with a microplate luminometer (Microlumate, Berthold). IC50 of the compounds in this assay was calculated with Prism 4.

T1 sequence (Q92847 whole entry): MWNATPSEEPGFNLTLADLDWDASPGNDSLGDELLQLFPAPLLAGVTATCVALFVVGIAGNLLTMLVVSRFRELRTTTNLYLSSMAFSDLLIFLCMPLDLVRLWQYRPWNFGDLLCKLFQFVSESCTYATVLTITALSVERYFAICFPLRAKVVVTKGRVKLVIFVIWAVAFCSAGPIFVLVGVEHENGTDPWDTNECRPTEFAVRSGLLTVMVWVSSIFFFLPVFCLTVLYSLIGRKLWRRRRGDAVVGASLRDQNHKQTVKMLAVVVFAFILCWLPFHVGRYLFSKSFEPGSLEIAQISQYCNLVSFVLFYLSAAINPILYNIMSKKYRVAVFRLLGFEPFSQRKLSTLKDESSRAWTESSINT

CC(C)C(C(=O)N1CCC(NC2CC2)CC1)N1CC(=O)Nc2ccc(Oc3ccccc3C(C)(C)C)cc2C1=O (stereo not drawn) [7-(2-tert-butyl-phenoxy)-4-[1-(4-cyclopropylamino-piperidine-1-carbonyl)-2-methyl-propyl]-3,4-dihydro-1H-benzo[e][1,4]diazepine-2,5-dione]
IC50: 10 to 50 nM

CC(C)NCc1cccc(C(C(C)C)N2CC(=O)Nc3ccc(Oc4ccc(F)cc4F)cc3C2=O)c1 (stereo not drawn) [7-(2,4-difluoro-phenoxy)-4-{1-[3-(isopropylamino-methyl)-phenyl]-2-methyl-propyl}-3,4-dihydro-1H-benzo[e][1,4]diazepine-2,5-dione]
IC50: ≤ 10 nM

CC(C)C(COC(=O)C1CCN(Cc2ccccc2)CC1)N1CC(=O)Nc2ccc(Oc3ccc(F)cc3)cc2C1=O (stereo not drawn) [1-benzyl-piperidine-4-carboxylic acid 2-[7-(4-fluoro-phenoxy)-2,5-dioxo-1,2,3,5-tetrahydro-benzo[e][1,4]diazepin-4-yl]-3-methyl-butyl ester]
IC50: 10 to 50 nM

C[C@H](CO)NCc1cccc([C@@H](C2CC2)N2CCc3ccc(Oc4ccc(F)cc4F)cc3C2=O)n1 [2-((R)-cyclopropyl(6-(((R)-1-hydroxypropan-2-ylamino)methyl)pyridin-2-yl)methyl)-7-(2,4-difluorophenoxy)-3,4-dihydroisoquinolin-1(2H)-one]
IC50: ≤ 10 nM

CC(C)[C@H](C(=O)NC1CCN(Cc2ccccc2)CC1)N1CC(=O)Nc2ccc(Oc3ccc(F)cc3)cc2C1=O
IC50: 10 to 50 nM

Cc1ccccc1Oc1ccc2c(c1)C(=O)N([C@@H](C(=O)N1CCC(N[C@@H]3CCc4ccccc43)CC1)C(C)C)CCN2
IC50: ≤ 10 nM

Cc1cccc(C)c1Oc1ccc2c(c1)C(=O)N(C(C(=O)N1CCC(NCc3ccc(F)cc3)CC1)C(C)C)CC(=O)N2 (stereo not drawn) [7-(2,6-dimethyl-phenoxy)-4-{1-[4-(4-fluoro-benzylamino)-piperidine-1-carbonyl]-2-methyl-propyl}-3,4-dihydro-1H-benzo[e][1,4]diazepine-2,5-dione]
IC50: ≤ 10 nM

CCc1ccccc1Oc1ccc2c(c1)C(=O)N(C(C(=O)N1CCC(NC3CC3)CC1)C(C)C)CC(=O)N2 (stereo not drawn) [4-[1-(4-cyclopropylamino-piperidine-1-carbonyl)-2-methyl-propyl]-7-(2-ethyl-phenoxy)-3,4-dihydro-1H-benzo[e][1,4]diazepine-2,5-dione]
IC50: 10 to 50 nM

CC(C)C(C(=O)OC1CCN(Cc2ccccc2)CC1)N1CC(=O)Nc2ccc(Oc3ccccc3)cc2C1=O (stereo not drawn) [2-(2,5-dioxo-7-phenoxy-1,2,3,5-tetrahydrobenzo[e][1,4]diazepin-4-yl)-3-methyl-butyric acid 1-benzyl-piperidin-4-yl ester]
IC50: 10 to 50 nM

CC(C)C(CCC1CCN(CC2CC2)CC1)N1CCc2ccc(Oc3ccc(F)cc3F)cc2C1=O (stereo not drawn) [2-{1-[2-(1-Cyclopropylmethyl-piperidin-4-yl)-ethyl]-2-methyl-propyl}-7-(2,4-difluoro-phenoxy)-3,4-dihydro-2H-isoquinolin-1-one]
IC50: ≤ 10 nM

Cc1cccc(C)c1Oc1ccc2c(c1)C(=O)N(C(C(=O)N1CCC(NCCc3ccc(F)cc3)CC1)C(C)C)CC(=O)N2 (stereo not drawn) [7-(2,6-dimethyl-phenoxy)-4-(1-{4-[2-(4-fluoro-phenyl)-ethylamino]-piperidine-1-carbonyl}-2-methyl-propyl)-3,4-dihydro-1H-benzo[e][1,4]diazepine-2,5-dione]
IC50: ≤ 10 nM

CC(C)C(C(=O)N1CCC(NCCc2ccc(F)cc2)CC1)N1CC(=O)Nc2ccc(Oc3ccccc3C(C)(C)C)cc2C1=O (stereo not drawn) [7-(2-tert-butyl-phenoxy)-4-(1-{4-[2-(4-fluoro-phenyl)-ethylamino]-piperidine-1-carbonyl}-2-methyl-propyl)-3,4-dihydro-1H-benzo[e][1,4]diazepine-2,5-dione]
IC50: 50 to 500 nM

CC(C)C(C(=O)N1CCC(NCC2CC2)CC1)N1CCc2ccc(Oc3ccc(F)cc3F)cc2C1=O (stereo not drawn) [2-{1-[4-(cyclopropylmethyl-amino)-piperidine-1-carbonyl]-2-methyl-propyl}-7-(2,4-difluoro-phenoxy)-3,4-dihydro-2H-isoquinolin-1-one]
IC50: ≤ 10 nM

CC(C)C(c1cccc(CN(C)C)c1)N1CC(=O)Nc2ccc(Oc3ccc(F)cc3F)cc2C1=O (stereo not drawn) [7-(2,4-difluoro-phenoxy)-4-[1-(3-dimethylaminomethyl-phenyl)-2-methyl-propyl]-3,4-dihydro-1H-benzo[e][1,4]diazepine-2,5-dione]
IC50: ≤ 10 nM

O=C1c2cc(Oc3ccc(F)cc3F)ccc2CCN1[C@@H](c1cccc(CNCCF)n1)C1CC1 [(R)-2-(cyclopropyl(6-((2-fluoroethylamino)methyl)pyridin-2-yl)methyl)-7-(2,4-difluorophenoxy)-3,4-dihydroisoquinolin-1(2H)-one]
IC50: ≤ 10 nM

Cc1cc(F)ccc1Oc1ccc2c(c1)C(=O)N(C(C(=O)NC1CCN(Cc3ccccc3)CC1)C(C)C)Cc1ncc(C)n1-2 (stereo not drawn) [N-(1-benzyl-piperidin-4-yl)-2-[8-(4-fluoro-2-methyl-phenoxy)-1-methyl-6-oxo-4H,6H-3,5,10b-triaza-benzo[e]azulen-5-yl]-3-methyl-butyramide]
IC50: ≤ 10 nM

CC(C)C(C(=O)N1CCC(NCc2ccc(F)cc2)CC1)N1CC=Cc2ccc(Oc3ccc(F)cc3F)cc2C1=O (stereo not drawn) [8-(2,4-difluoro-phenoxy)-2-{1-[4-(4-fluoro-benzylamino)-piperidine-1-carbonyl]-2-methyl-propyl}-2,3-dihydro-benzo[c]azepin-1-one]
IC50: ≤ 10 nM

CC(C)C(C(=O)N1CCC(NCc2ccc(F)cc2)CC1)N1CCc2ccc(Oc3ccc(F)cc3F)cc2C1=O (stereo not drawn) [7-(2,4-difluoro-phenoxy)-2-{1-[4-(4-fluoro-benzylamino)-piperidine-1-carbonyl]-2-methyl-propyl}-3,4-dihydro-2H-isoquinolin-1-one]
IC50: ≤ 10 nM

CCc1ccccc1Oc1ccc2c(c1)C(=O)N(C(C(=O)N1CCC(NCc3ccc(F)cc3)CC1)C(C)C)CC(=O)N2 (stereo not drawn) [7-(2-ethyl-phenoxy)-4-{1-[4-(4-fluoro-benzylamino)-piperidine-1-carbonyl]-2-methyl-propyl}-3,4-dihydro-1H-benzo[e][1,4]diazepine-2,5-dione]
IC50: 10 to 50 nM

CC(C)C(COC1CCN(CC2CC2)CC1)N1CCc2ccc(Oc3ccc(F)cc3F)cc2C1=O (stereo not drawn) [2-[1-(1-cyclopropylmethyl-piperidin-4-yloxymethyl)-2-methyl-propyl]-7-(2,4-difluoro-phenoxy)-3,4-dihydro-2H-isoquinolin-1-one]
IC50: ≤ 10 nM

Cc1ccccc1Oc1ccc2c(c1)C(=O)N(C(C(=O)N1CCC(NCCc3ccc(F)cc3)CC1)C(C)C)CCN2C (stereo not drawn) [4-(1-{4-[2-(4-fluoro-phenyl)-ethylamino]-piperidine-1-carbonyl}-2-methyl-propyl)-1-methyl-7-o-tolyloxy-1,2,3,4-tetrahydrobenzo[e][1,4]diazepin-5-one]
IC50: 10 to 50 nM

O=C1c2cc(Oc3ccc(F)cc3F)ccc2CCN1[C@@H](c1cccc(CNCC2CC2)n1)C1CC1 [(R)-2-(cyclopropyl(6-((cyclopropylmethylamino)methyl)pyridin-2-yl)methyl)-7-(2,4-difluorophenoxy)-3,4-dihydroisoquinolin-1(2H)-one]
IC50: ≤ 10 nM

CC(C)(CO)NCc1cccc([C@@H](C2CC2)N2CCc3ccc(Oc4ccc(F)cc4F)cc3C2=O)n1 [(R)-2-(cyclopropyl(6-((1-hydroxy-2-methylpropan-2-ylamino)methyl)pyridin-2-yl)methyl)-7-(2,4-difluorophenoxy)-3,4-dihydroisoquinolin-1(2H)-one]
IC50: ≤ 10 nM

O=C1c2cc(Oc3ccc(F)cc3F)ccc2CCN1[C@@H](c1cccc(CNCC(F)F)n1)C1CC1 [(R)-2-(cyclopropyl(6-((2,2-difluoroethylamino)methyl)pyridin-2-yl)methyl)-7-(2,4-difluorophenoxy)-3,4-dihydroisoquinolin-1(2H)-one]
IC50: ≤ 10 nM

O=C1c2cc(Oc3ccc(F)cc3F)ccc2CCN1[C@@H](c1cccc(CNC2CC2)n1)C1CC1 [(R)-2-(cyclopropyl(6-((cyclopropylamino)methyl)pyridin-2-yl)methyl)-7-(2,4-difluorophenoxy)-3,4-dihydroisoquinolin-1(2H)-one]
IC50: ≤ 10 nM

O=C1c2cc(Oc3ccc(F)cc3F)ccc2CCN1C(c1cccc(CCNCC2CC2)c1)C1CC1 (stereo not drawn) [2-(cyclopropyl-{3-[2-(cyclopropylmethyl-amino)-ethyl]-phenyl}-methyl)-7-(2,4-difluoro-phenoxy)-3,4-dihydro-2H-isoquinolin-1-one]
IC50: ≤ 10 nM

Cc1cccc(C)c1Oc1ccc2c(c1)C(=O)N([C@@H](C(=O)N1CCC(NC(C)c3ccccc3)CC1)C(C)C)CC(=O)N2 (stereo partly drawn)
IC50: ≤ 10 nM

CC(C)C(COC(=O)NC1CCN(Cc2ccccc2)CC1)N1CC(=O)Nc2ccc(Oc3ccc(F)cc3)cc2C1=O (stereo not drawn) [(1-benzyl-piperidin-4-yl)-carbamic acid 2-[7-(4-fluoro-phenoxy)-2,5-dioxo-1,2,3,5-tetrahydro-benzo[e][1,4]diazepin-4-yl]-3-methyl-butyl ester]
IC50: 50 to 500 nM

CC(C)C(CC1CCC(NC2CC2)CC1)N1CCCc2ccc(Oc3ccc(F)cc3F)cc2C1=O (stereo not drawn) [2-[1-(4-Cyclopropylamino-cyclohexylmethyl)-2-methyl-propyl]-8-(2,4-difluoro-phenoxy)-2,3,4,5-tetrahydro-benzo[c]azepin-1-one]
IC50: ≤ 10 nM

CC(C)C(COC(=O)NC1CCN(Cc2ccc(F)cc2)CC1)N1CC(=O)Nc2ccc(Oc3ccc(F)cc3)cc2C1=O (stereo not drawn) [[1-(4-Fluoro-benzyl)-piperidin-4-yl]-carbamic acid 2-[7-(4-fluoro-phenoxy)-2,5-dioxo-1,2,3,5-tetrahydro-benzo[e][1,4]diazepin-4-yl]-3-methyl-butyl ester]
IC50: 50 to 500 nM
